Results published in EP0908457B1, “3-(1,2-benzisothiazol- and isoxazol-5-Y1)-2,4(1H,3H)-pyrimidinedione or thione and 3-(1,2-benzisothiazol- and isoxazol-5-y1)-4(3H)-pyrimidinone or thione herbicidal agents” (BASF AKTIENGESELLSCHAFT, priority 1997, dated 1999).

Legend:
[1] = tested on: Echinochloa oryzoides (Ard.) Fritsch.; test: Preemergence weed control under flooded paddy conditions, ECHORC (Watergrass (Calif.)); type: in vivo; settings: preemergence weeds, flooded paddy, herbicidal effect rating 0-9, three to four weeks after treatment
Cyperus iria = test: Preemergence weed control under flooded paddy conditions, CYPIR (Rice Flatsedge); type: in vivo; settings: preemergence weeds, flooded paddy, herbicidal effect rating 0-9, three to four weeks after treatment
[2] = tested on: Cyperus serotinus, Rottb.; test: Preemergence weed control under flooded paddy conditions, CYPSE (Flatsedge); type: in vivo; settings: preemergence weeds, herbicidal effect rating 0-9, three to four weeks after treatment
[3] = tested on: Monochoria vaginalis, Presl.; test: Preemergence weed control under flooded paddy conditions, MOOVA (Monochoria); type: in vivo; settings: preemergence weeds, flooded paddy, herbicidal effect rating 0-9, three to four weeks after treatment
Sagittaria pygmaea, L. = test: Preemergence weed control under flooded paddy conditions, SAGPY (Arrowhead (Pygmaea)); type: in vivo; settings: preemergence weeds, flooded paddy, herbicidal effect rating 0-9, three to four weeks after treatment
[4] = tested on: Oryza sativa, (L.) Tebonnet; test: Rice tolerance to post-transplant applications under flooded paddy conditions (Example 187), ORYSAT (Rice, Tebonnet); settings: herbicidal effect rating 0-9, three to four weeks after treatment

| SMILES | ECHORC ([1]; 0.0320 kg/ha) | ECHORC ([1]; 0.0620 kg/ha) | ECHORC ([1]; 0.1250 kg/ha) | ECHORC ([1]; 0.2500 kg/ha) | CYPIR (Cyperus iria; 0.0320 kg/ha) | CYPIR (Cyperus iria; 0.0620 kg/ha) | CYPIR (Cyperus iria; 0.1250 kg/ha) | CYPIR (Cyperus iria; 0.2500 kg/ha) | CYPSE ([2]; 0.0320 kg/ha) | CYPSE ([2]; 0.0620 kg/ha) | MOOVA ([3]; 0.0320 kg/ha) | MOOVA ([3]; 0.0620 kg/ha) | MOOVA ([3]; 0.1250 kg/ha) | MOOVA ([3]; 0.2500 kg/ha) | SAGPY (Sagittaria pygmaea, L.; 0.1250 kg/ha) | SAGPY (Sagittaria pygmaea, L.; 0.2500 kg/ha) | ORYSAT ([4]; 0.0320 kg/ha) | ORYSAT ([4]; 0.0620 kg/ha) | ORYSAT ([4]; 0.1250 kg/ha) | ORYSAT ([4]; 0.2500 kg/ha) | also measured |
| --- | --- | --- | --- | --- | --- | --- | --- | --- | --- | --- | --- | --- | --- | --- | --- | --- | --- | --- | --- | --- | --- |
| Cc1ccc(OCC(=O)O)c(-c2noc3cc(F)c(-n4c(=O)cc(C(F)(F)F)n(C)c4=O)cc23)c1 [Example 425, Acetic acid, {{2-{5-[3,6-dihydro-3-methyl-2,6-dioxo-4-(trifluoromethyl)-1(2H)-pyrimidinyl]-6-fluoro-1,2-benzisoxazol-3-yl}-p-tolyl}oxy}-] | 6.0 | 9.0 | 9.0 | 9.0 | 0.0 | 0.0 | 6.0 | 9.0 | 0.0 | 3.0 | 6.0 | 7.0 | 9.0 | 9.0 | 3.0 | 4.0 | 4.0 | 6.0 | 7.0 | 8.0 | CYPSE ([2]; 0.1250 kg/ha): 3.0; CYPSE ([2]; 0.2500 kg/ha): 3.0; SAGPY (Sagittaria pygmaea, L.; 0.0320 kg/ha): 0.0; SAGPY (Sagittaria pygmaea, L.; 0.0620 kg/ha): 0.0 |
| Cc1ccc(OCC(=O)NS(C)(=O)=O)c(-c2noc3cc(F)c(-n4c(=O)cc(C(F)(F)F)n(C)c4=O)cc23)c1 [Example 428, Acetamide, 2-{{2-{5-[3,6-dihydro-3-methyl-2,6-dioxo-4-(trifluoromethyl)-1(2H)-pyrimidinyl]-6-fluoro-1,2-benzisoxazol-3-yl}-p-tolyl}oxy}-N-(methylsulfonyl)-] | 2.0 | 3.0 | 6.0 | 9.0 | 0.0 | 2.0 | 4.0 | 7.0 | 0.0 | 0.0 | 9.0 | 9.0 | 9.0 | 9.0 | 2.0 | 6.0 | 0.0 | 2.0 | 6.0 | 6.0 | SAGPY (Sagittaria pygmaea, L.; 0.0320 kg/ha): 0.0; SAGPY (Sagittaria pygmaea, L.; 0.0620 kg/ha): 0.0 |
| CN(c1ccc(-c2nsc3ccc(-n4c(=O)cc(C(F)(F)F)n(C)c4=O)cc23)cc1)S(C)(=O)=O [Example 430, Methanesulfonanilide, 4'-{5-[3,6-dihydro-3-methyl-2,6-dioxo-4-(trifluoromethyl)-1(2H)-pyrimidinyl]-1,2-benzisothiazol-3-yl}-N-methyl-] | 5.0 | 5.0 | 7.0 | 9.0 | 2.0 | 6.0 | 7.0 | 6.0 | 0.0 | 0.0 | 9.0 | 9.0 | 9.0 | 9.0 | 6.0 | 7.0 | 3.0 | 2.0 | 4.0 | 3.0 | CYPSE ([2]; 0.1250 kg/ha): 2.0; CYPSE ([2]; 0.2500 kg/ha): 7.0 |
| COC(=O)COc1cc2c(cc1-c1nsc3ccc(-n4c(=O)cc(C(F)(F)F)n(C)c4=O)cc13)CCC2 [Example 434, Acetic acid, {{6-{5-[3,6-dihydro-3-methyl-2,6-dioxo-4-(trifluoromethyl)-1(2H)-pyrimidinyl]-1,2-benzisothiazol-3-yl}-5-indanyl}oxy}-, methyl ester] | 6.0 | 7.0 | 7.0 | 9.0 | 3.0 | 3.0 | 7.0 | 8.0 | 4.0 | – | 9.0 | 9.0 | 9.0 | 9.0 | 5.0 | 6.0 | 4.0 | 6.0 | 6.0 | 7.0 | CYPSE ([2]; 0.1250 kg/ha): 4.0; CYPSE ([2]; 0.2500 kg/ha): 7.0; SAGPY (Sagittaria pygmaea, L.; 0.0320 kg/ha): 4.0; SAGPY (Sagittaria pygmaea, L.; 0.0620 kg/ha): 4.0 |
